Experimental data published in patent US4839343A, “Preparation containing hexatriacontapeptides and methods of use” (Debiopharm, S.A., priority 1987, dated 1989).

Experiments:
[1] = test system: patient seriously affected by bacteremic (endotoxic) shock; assay: Treatment of patient with bacteremic (endotoxic) shock by intravenous peptide infusion; assay type: in vivo, human
Description: A patient seriously affected by bacteremic (endotoxic) shock was admitted in an intensive care unit and treated with dopamine given intravenously at doses of 10 and 20 mcg/kg/min.
A solution of NPY was then given by intravenous infusion at increasing doses of 0.01 to 50 pmol/kg/min over a period of 10 hours.

[2] = test system: Normotensive male Wistar rats; assay: Endotoxin-induced blood pressure fall in adrenal-demedullated conscious rats, i.v. NPY infusion; assay type: in vivo, rat
Description: Normotensive male Wistar rats were subjected to adrenal demedullation on the right side and either adrenolectomized or sham-operated on the left side. Ten days later a solution of NPY in non-alkaline saline was given as an intravenous infusion (70 ng/min) to these conscious semi-restrained animals. A group of control animals received only the saline diluent. During the last 75 minutes of the experiment, endotoxin (LPs E. Coli 0111: B4, 10 mcg/min i.v.) was administered both in NPY-treated and control animals.

[3] = test system: Conscious normotensive rats; assay: Pressor response to norepinephrine in conscious normotensive rats infused with endotoxin and/or NPY; assay type: in vivo, rat
Description: Conscious normotensive rats were divided into six groups. Rats of Group II and IV were infused intravenously with NPY (0.1 mcg/min for 75 min). A further two groups of rats (I and III) received the vehicle of the peptide ([…]) for the same period. Escherichia Coli endotoxin (lipopolysaccharide E. Coli 0.111: B4, Difco Laboratories, Detroit, MI), 10 mcg/10 mcl/min was infused starting 15 min after the beginning of the NPY-infusion (Group IV) or its vehicle (Group III). The remaining rats (Groups I and […]) were given the vehicle of endotoxin, 10 mcl/min i.v. In all these rats, a dose-response curve to intravenous injections of norepinephrine was obtained 5 min after ending the administration of NPY. The infusion of endotoxin or its vehicle was continued throughout this period. In two additional groups rats infused for 45 min with endotoxin or its vehicle, a 2 ml blood sample was obtained via the arterial catheter for determination of plasma NPY levels.
The endotoxin was dissolved in 0.9% NaCl to achieve a concentration of […]. NPY was diluted with 0.1M HCl to a concentration of 10 mg/l. Aliquots containing 15 mcg were stored frozen at -70° C. and thawed immediately before use. The different solutions were infused using a syringe pump (Model 455, Sage Instrument, White Plains, NY). Norepinephrine (Arterenol, Hoechst, Frankfurt-am-Main, FRG) was diluted in 0.9% NaCl to attain a concentration of 20 ng/20 mcl. Using a 250 mcl glass syringe (Hamilton), the dose of norepinephrine was increased by altering the volume injected.

Row | Compound | arterial pressure of the patient under dopamine alone ([1]; dopamine i.v. 10 and 20 mcg/kg/min, before NPY) | reduction of intraarterial mean blood pressure during endotoxin infusion ([2]; NPY 70 ng/min i.v. infusion, endotoxin 10 mcg/min i.v. for last 75 min, 12 rats, baseline 116±1.6 mm Hg, controls dropped 40±6.4 mm Hg, 2 of 9 died) [mm Hg] | effect of NPY infusion alone on blood pressure ([2]; another group of rats, NPY 70 ng/min i.v., no endotoxin) | effect on concomitant dopamine dose ([1]; NPY i.v. infusion 0.01 to 50 pmol/kg/min over 10 hours, each time tachycardia was observed) | arterial pressure of the patient ([1]; NPY i.v. infusion, increasing doses 0.01 to 50 pmol/kg/min over 10 hours, with dopamine) | pressor effects of norepinephrine after NPY infused alone (Group II) versus control (Group I) ([3]; NPY 0.1 mcg/min i.v. 75 min, norepinephrine 20, 40, 80, 160 ng, p<0.001, <0.01, <0.001, <0.05) | blood pressure response to norepinephrine in endotoxin plus NPY rats (Group IV) versus control rats (Group I) ([3]; NPY 0.1 mcg/min i.v. 75 min plus endotoxin, all norepinephrine doses tested) | blood pressure response to norepinephrine in endotoxin-treated rats (Group IV) versus endotoxin alone (Group III) ([3]; NPY 0.1 mcg/min i.v. 75 min plus endotoxin, norepinephrine 20, 40, 80, 160 ng i.v., p<0.05, <0.01, <0.01, <0.05) | effect on blood pressure or heart rate before norepinephrine injections ([3]; NPY 0.1 mcg/min i.v. for 75 min, alone or in combination with endotoxin 10 mcg/min) | duration of NPY-induced facilitation of norepinephrine evoked changes in blood pressure ([3]; last norepinephrine dose given 50 min after stopping the NPY infusion)
1 | NCCc1ccc(O)c(O)c1 [dopamine, reference compound] | continued to fall |  |  |  |  |  |  |  |  | 
2 | neuropeptide Y [NPY] |  | 8±2.1 | no significant effect on blood pressure | allowed a decrease in the dose of dopamine | normalization of arterial pressure | significantly enhanced | no longer any significant difference | significantly greater than in those animals receiving endotoxin alone | no significant effect on blood pressure or heart rate | long-lasting
